# Laboratory results taken from US10709715B2, “Method of treating hypertension” (Cipla Limited, priority 2017, dated 2020).
# Several values for one entry are separate records, joined by “and”; a condition that tells them apart may be missing. Equal entries are not always repeated. Where two headings read alike, the source gives them in different places.
# Tests used:
# [1] = cited from earlier work
# [2] = test system: rats with monocrotaline induced pulmonary arterial hypertension; test: Monocrotaline rat model for pulmonary arterial hypertension, dosing from Day 1 for 28 days (Example 1); type: in vivo, Male Sprague-Dawley rats; conditions: for Fulton index: Hypertrophy (RV/LV + S), Mean / RV/Body wt, Mean / Right Ventricular Pressure (RVP), Mean / Right Ventricular Systolic Pressure (RVSP), Mean / Right ventricle (RV), Mean: group mean; for Fulton index: Hypertrophy (RV/LV + S), Mean / RV/Body wt, Mean / Right Ventricular Pressure (RVP), Mean / Right Ventricular Systolic Pressure (RVSP), Mean / Right ventricle (RV), Mean / Fulton index: Hypertrophy (RV/LV + S) / RV/Body wt / Right Ventricular Pressure (RVP) / Right ventricle (RV) / Right Ventricular Systolic Pressure (RVSP): Day 28; for Fulton index: Hypertrophy (RV/LV + S) / RV/Body wt / Right Ventricular Pressure (RVP) / Right ventricle (RV) / Right Ventricular Systolic Pressure (RVSP): individual animals; for Right Ventricular Systolic Pressure (RVSP): MCT 50 mg/kg s.c.
# Protocol: The studies were conducted for hemodynamic evaluation of temozolomide in anesthetized sprague dawley rats treated with monocrotaline (“MCT”) to induce pulmonary arterial hypertension. Sildenafil was used as an internal control to compare the effects of temozolomide.
# (§1) The effects of temozolomide were evaluated in rats with monocrotaline induced pulmonary arterial hypertension using sildenafil as standard care treatment. Male Sprague-Dawley rats were orally administered vehicle, temozolomide (10 mg/kg given once daily every day for 28 days starting on Day 1), or sildenafil (100 mg/kg, administered once daily every day for 28 days starting on Day 1) (n=12 in each group). Rats received a single injection of monocrotaline (50 mg/kg, s.c.) on Study Day 1. On the twenty-eighth day following monocrotaline dosing, the rats were anesthetized with ketamine/xylazine for terminal monitoring of pulmonary and systemic arterial pressures along with heart rate.
# Test Item: Vehicle (0.5% Methylcellulose+0.2% Tween 80 in deionized water, Temozolomide (10 mg/kg given once daily for 28 days; Sildenafil (100 mg/kg administered once daily)
# (§2) Route of Administration: Oral
# Study Design: The study was planned and conducted according to design depicted below in Table 1
# Pulmonary arterial hypertension was induced by injecting monocrotaline (3 mL/Kg MCT in 50% DMSO in water) subcutaneously at a dose of 50 mg/kg of body weight to all the randomized Male Sprague-Dawley rats of Groups II, III,IV and V (except negative control group). Negative control group (Group I, DMSO group) received a single dose of 3 mL/kg 50% DMSO in water for injection subcutaneously. The positive control group (Group III) received 5 ml of vehicle every morning. The rats of temozolomide group (Group IV) were orally administered temozolomide (10 mg/kg given once daily for 28 days starting on Day 1) and rats of sildenafil group (Group V) were orally administered sildenafil (100 mg/kg given once daily for 28 days starting on Day 1) On the twenty-eighth day after monocrotaline dosing, the rats were anesthetized with ketamine/xylazine for terminal monitoring of pulmonary and systemic arterial pressures along with heart rate.
# [3] = test system: rats with monocrotaline induced pulmonary arterial hypertension; test: Monocrotaline rat model for treatment of pulmonary arterial hypertension, dosing Day 14 till Day 28 (Example 2); type: in vivo, Male Sprague-Dawley rats; conditions: for inhibition at 30 mg/kg / inhibition at 100 mg/kg: Rattus norvegicus, po; for inhibition at 30 mg/kg / % Inhibition of Fulton index : Hypertrophy (RV/LV + S) / inhibition at 100 mg/kg: positive control = 0.00; for Fulton index: Hypertrophy (RV/LV + S), Mean / Right Ventricle weight, Mean / Right Ventricular Pressure (RVP), Mean / Right Ventricular Systolic Pressure (RVSP), Mean / Right ventricle/Body weight, Mean: group mean; for Fulton index: Hypertrophy (RV/LV + S), Mean / Right Ventricle weight, Mean / Right Ventricular Pressure (RVP), Mean / Right Ventricular Systolic Pressure (RVSP), Mean / Right ventricle/Body weight, Mean / Fulton index: Hypertrophy (RV/LV + S) / Right Ventricle weight / Right Ventricular Pressure (RVP) / Right ventricle/Body weight / Right Ventricular Systolic Pressure (RVSP): Day 28; for Fulton index: Hypertrophy (RV/LV + S) / Right Ventricle weight / Right Ventricular Pressure (RVP) / Right ventricle/Body weight / Right Ventricular Systolic Pressure (RVSP): individual animals
# Protocol: The studies were conducted for hemodynamic evaluation of Temozolomide in anesthetized Sprague Dawley rats treated with monocrotaline (“MCT”) to induce pulmonary arterial hypertension. Sildenafil was used as an internal control to compare the effects of temozolomide
# as §1, with “temozolomide (30 mg/kg,” for “temozolomide (10 mg/kg”, “day” for “day for 28 days”, “Day 14 till Day 28),” for “Day 1),”, “mg/kg, given” for “mg/kg, administered”, “Day 14 till Day 28)” for “Day 1)”
# Test Item: Vehicle (0.5% Methylcellulose+0.2% Tween 80 in deionized water, temozolomide (30 mg/kg given once daily starting on Day 14 till Day 28; Sildenafil (100 mg/kg, administered once daily starting on Day 14 till Day 28)
# as §2
# Study Design: The study was planned and conducted according to design depicted below in Table 7
# Pulmonary arterial hypertension was induced by injecting 50 mg/kg dose of monocrotaline (3 mL/Kg MCT in 50% DMSO in water) subcutaneously to all the randomized Male Sprague-Dawley rats of Groups VII, VIII, IX, and X (except negative control group). Negative control group (Group VI, DMSO group) received a single dose of 3 mL/kg 50% DMSO in water for injection subcutaneously. Male Sprague-Dawley rats in groups VII, VIII, IX, and X were administered 50 mg/kg of body weight of monocrotaline in DMSO subcutaneously to induce PAH on day 1. The rats of vehicle positive control group (Group VIII) received 5 ml of vehicle every morning. The rats of the temozolomide group (Group IX) were orally administered Temozolomide (30 mg/kg given once daily starting on Day 14 till Day 28) and rats of sildenafil group (Group X) were orally administered sildenafil (100 mg/kg given once daily starting on Day 14 till Day 28). On the twenty-eighth day after monocrotaline dosing, the rats were anesthetized with ketamine/xylazine for terminal monitoring of pulmonary and systemic arterial pressures along with heart rate. It is understood that from day 1 till administration of test compounds i.e till day 14, rates of all groups were suffering from PAH due to administration of MCT. Thus the study was conducted to evaluate the efficacy of Temozolomide treatment for PAH. Sildenafil was used as an internal control to compare the effects of Temozolomide.
# [4] = administered after a modified high-fat breakfast
# [5] = Temozolomide 10 mg/Kg p.o. QD 28 days from Day 1
# [6] = Temozolomide 30 mg/Kg p.o. QD Day 14 till Day 28
# [7] = Sildenafil 100 mg/Kg p.o. QD 28 days from Day 1
# [8] = Sildenafil 100 mg/Kg p.o. QD Day 14 till Day 28
compound,measurement,setting,value
Cn1nnc2c(C(N)=O)ncn2c1=O [Temozolomide],AUC decrease,[1]; [4],9%
same,Mean peak plasma concentration decrease,[1]; [4],32%
same,median Tmax,[1]; [4],2.25 h
same,median Tmax increase,[1]; [4],2 fold
same,absorption,[1]; oral administration,rapidly and completely absorbed
same,activity in controlling or reducing PAH,[2]; Temozolomide 10 mg/kg vs Sildenafil 100 mg/kg,comparable among with Sildenafil activity
same,systolic and mean pulmonary arterial pressures compared to the vehicle group,"[2]; after 28 days, 10 mg/kg/QD/day",differences in systolic and mean pulmonary arterial pressures
same,"Fulton index: Hypertrophy (RV/LV + S), Mean",[2]; [5],0.342
same,"RV/Body wt, Mean",[2]; [5],0.0007
same,"Right Ventricular Pressure (RVP), Mean",[2]; [5],15.548 mmHg
same,"Right Ventricular Systolic Pressure (RVSP), Mean",[2]; [5],33.732 mmHg
same,"Right ventricle (RV), Mean",[2]; [5],0.227 g
same,Fulton index: Hypertrophy (RV/LV + S),[2]; [5],0.325 and 0.333 and 0.450 and 0.294 and 0.406 and 0.287 and 0.277 and 0.255 and 0.519 and 0.345 and 0.273
same,RV/Body wt,[2]; [5],0.0006 (3×) and 0.0008 (2×) and 0.0005 (4×) and 0.0011 and 0.0007
same,Right Ventricular Pressure (RVP),[2]; [5],11.178 mmHg and 15.927 mmHg and 16.493 mmHg and 19.994 mmHg and 15.532 mmHg and 12.593 mmHg and 16.840 mmHg and 17.431 mmHg and 16.896 mmHg and 16.462 mmHg and 11.679 mmHg
same,Right ventricle (RV),[2]; [5],0.244 g and 0.220 g (2×) and 0.298 g and 0.202 g and 0.268 g and 0.218 g and 0.197 g and 0.167 g and 0.311 g and 0.156 g
same,Right Ventricular Systolic Pressure (RVSP),[2]; [5],29.626 mmHg and 33.857 mmHg and 35.059 mmHg and 38.531 mmHg and 30.456 mmHg and 30.333 mmHg and 36.128 mmHg and 35.368 mmHg and 40.220 mmHg and 33.582 mmHg and 27.895 mmHg
same,inhibition at 30 mg/kg,"[3]; Temozolomide 30 mg/Kg p.o. QD Day 14 till Day 28, read-out: % Inhibition of Right Ventricular Pressure (RVP)",53.9%
same,inhibition at 30 mg/kg,"[3]; Temozolomide 30 mg/Kg p.o. QD Day 14 till Day 28, read-out: % Inhibition of Right Ventricular Systolic Pressure (RVSP)",44.8%
same,% Inhibition of Fulton index : Hypertrophy (RV/LV + S),[3]; [6],19.83%
same,activity in treatment of PAH,[3]; Temozolomide 30 mg/kg vs Sildenafil 100 mg/kg,comparable among with Sildenafil activity
same,systolic and mean pulmonary arterial pressures compared to the vehicle group,"[3]; after 28 days, 30 mg/kg/QD/day, Day 14 till Day 28",differences in systolic and mean pulmonary arterial pressures
same,"Fulton index: Hypertrophy (RV/LV + S), Mean",[3]; [6],0.444
same,"Right Ventricle weight, Mean",[3]; [6],0.274 gms
same,"Right Ventricular Pressure (RVP), Mean",[3]; [6],15.802 mmHg
same,"Right Ventricular Systolic Pressure (RVSP), Mean",[3]; [6],37.936 mmHg
same,"Right ventricle/Body weight, Mean",[3]; [6],0.0009
same,Fulton index: Hypertrophy (RV/LV + S),[3]; [6],0.502 and 0.480 and 0.481 (2×) and 0.382 and 0.357 and 0.485 and 0.506 and 0.341 and 0.427
same,Right Ventricle weight,[3]; [6],0.311 gms and 0.286 gms and 0.210 gms and 0.237 gms and 0.273 gms and 0.343 gms and 0.232 gms and 0.245 gms and 0.283 gms and 0.318 gms
same,Right Ventricular Pressure (RVP),[3]; [6],15.151 mmHg and 19.476 mmHg and 14.308 mmHg and 12.295 mmHg and 15.993 mmHg and 21.577 mmHg and 22.479 mmHg and 12.349 mmHg and 12.363 mmHg and 12.035 mmHg
same,Right ventricle/Body weight,[3]; [6],0.0011 (3×) and 0.0010 and 0.0008 (3×) and 0.0007 and 0.0009 (2×)
same,Right Ventricular Systolic Pressure (RVSP),"[3]; Temozolomide 30 mg/Kg p.o. QD Day 14 till Day 28, MCT 50 mg/kg s.c. Day 1",39.693 mmHg and 42.429 mmHg and 31.561 mmHg and 36.888 mmHg and 37.763 mmHg and 48.504 mmHg and 45.392 mmHg and 33.928 mmHg and 29.989 mmHg and 33.218 mmHg
CCCc1nn(C)c2c(=O)[nH]c(-c3cc(S(=O)(=O)N4CCN(C)CC4)ccc3OCC)nc12 [Sildenafil],"Fulton index: Hypertrophy (RV/LV + S), Mean",[2]; [7],0.312
same,"RV/Body wt, Mean",[2]; [7],0.0006
same,"Right Ventricular Pressure (RVP), Mean",[2]; [7],13.929 mmHg
same,"Right Ventricular Systolic Pressure (RVSP), Mean",[2]; [7],29.648 mmHg
same,"Right ventricle (RV), Mean",[2]; [7],0.247 g
same,Fulton index: Hypertrophy (RV/LV + S),[2]; [7],0.367 and 0.297 and 0.323 and 0.312 and 0.352 and 0.309 and 0.330 and 0.167 and 0.354
same,RV/Body wt,[2]; [7],0.0009 and 0.0006 (4×) and 0.0007 (3×) and 0.0003
same,Right Ventricular Pressure (RVP),[2]; [7],11.481 mmHg and 15.226 mmHg and 11.673 mmHg and 14.427 mmHg and 14.139 mmHg and 16.310 mmHg and 12.947 mmHg and 12.352 mmHg and 16.804 mmHg
same,Right ventricle (RV),[2]; [7],0.440 g and 0.228 g and 0.207 g and 0.232 g and 0.308 g and 0.229 g and 0.261 g and 0.083 g and 0.236 g
same,Right Ventricular Systolic Pressure (RVSP),[2]; [7],23.627 mmHg and 31.322 mmHg and 24.486 mmHg and 29.450 mmHg and 31.316 mmHg and 32.922 mmHg and 34.262 mmHg and 25.579 mmHg and 33.864 mmHg
same,inhibition at 100 mg/kg,"[3]; Sildenafil 100 mg/Kg p.o. QD Day 14 till Day 28, read-out: % Inhibition of Right Ventricular Pressure (RVP)",58.3%
same,inhibition at 100 mg/kg,"[3]; Sildenafil 100 mg/Kg p.o. QD Day 14 till Day 28, read-out: % Inhibition of Right Ventricular Systolic Pressure (RVSP)",55.1%
same,% Inhibition of Fulton index : Hypertrophy (RV/LV + S),[3]; [8],30.70%
same,"Fulton index: Hypertrophy (RV/LV + S), Mean",[3]; [8],0.384
same,"Right Ventricle weight, Mean",[3]; [8],0.286 gms
same,"Right Ventricular Pressure (RVP), Mean",[3]; [8],14.302 mmHg
same,"Right Ventricular Systolic Pressure (RVSP), Mean",[3]; [8],30.803 mmHg
same,"Right ventricle/Body weight, Mean",[3]; [8],0.0008
same,Fulton index: Hypertrophy (RV/LV + S),[3]; [8],0.464 and 0.393 and 0.306 and 0.337 and 0.389 and 0.415
same,Right Ventricle weight,[3]; [8],0.309 gms and 0.220 gms and 0.259 gms and 0.256 gms and 0.308 gms and 0.363 gms
same,Right Ventricular Pressure (RVP),[3]; [8],10.916 mmHg and 11.268 mmHg and 17.424 mmHg and 11.506 mmHg and 16.211 mmHg and 18.486 mmHg
same,Right Ventricular Systolic Pressure (RVSP),[3]; [8],22.951 mmHg and 27.908 mmHg and 33.917 mmHg and 23.264 mmHg and 40.201 mmHg and 36.579 mmHg
same,Right ventricle/Body weight,[3]; [8],0.0009 (2×) and 0.0006 and 0.0007 (2×) and 0.0012
